Where “and” joins values, the source holds several entries; their conditions need not be identical. Identical values can stand only once. Like-named read-outs stand apart in the source and are kept apart here.

One test relates to BMDCs. The test is described as follows: LDH release (lytic cell death, pyroptosis) from LPS-primed BMDCs. The test is classed as cell-based, mouse. Conditions: for Average (% positive control): LDH release; for cytotoxicity at 25 µM / cytotoxicity at 50 µM / cytotoxicity at 75 µM / cytotoxicity at 18.75 µM / cytotoxicity at 37.5 µM: Mus musculus, BMDC; for cytotoxicity at 25 µM / cytotoxicity at 50 µM: AH series table. Summed up: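 Mouse BMDCs (7-9 days differentiated, GM-CSF) primed with 50 ng ml^−1 E. coli K12 LPS for 3 hours, then exposed 3 hours to compounds (50 μM unless indicated) or activators (nigericin 5 μM; R837, CL097 100 μM). Lytic death measured as LDH release by colorimetric assay, triplicate wells.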

The next test concerns the target T1, NLRP3 inflammasome (Mus musculus, UniProt Q8R4B8).
T1 construct: endogenous in cells; host or cells: primary mouse bone marrow-derived dendritic cells (BMDCs), LPS-primed
The test is described as follows: IL-1β release from LPS-primed BMDCs (ELISA) as readout of NLRP3 inflammasome activation. Conditions: for IL-1β: individual replicate values; for Average (% positive control): IL-1β. Type of test: cell-based. The essentials: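 NLRP3 inflammasome activation was read out as IL-1β released into the supernatant, measured by ELISA. Murine BMDCs were primed with LPS (50 ng ml^−1, 3 hours), then incubated with compounds for 3 hours, with each condition run in three technical replicates. Nigericin at 5 μM acted as the positive control activator, and IL-1β release was also expressed as a percentage of that control.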

The test system of the next test is NLRP3. The test is described as follows: Inflammasome stimulation (IL-1β, LDH release) in BMDCs from NLRP3 knockout or ASC knockout mice. The test is classed as cell-based, mouse. Conditions: IL-1β and LDH release. How it is done: For canonical inflammasome activation BMDCs after 7-9 days of differentiation were harvested and counted with a Neubauer Chamber (Hecht Assistant) and the concentration was set to 1 Mio cells ml^−1. 100 μl cell suspension per well were seeded in 96-well plates. The cells were primed with 50 ng ml^−1 E. coli K12 ultra-pure LPS for 3 hours and subsequently treated with canonical inflammasome activators or experimental compounds for 3 hours if not indicated differently (incubation time FIG. 4D, 5, 7, 8, 11, 13-18: 3 h, FIG. 12: 4 h). Concentrations of the stimuli were as follows if not indicated differently: 5 μM nigericin, 100 μM imiquimod (also known as R837), 100 μM CL097, 100 μM R848, […] poly(dA:dT), 300 μg ml^−1 MSU. If an inhibitor was used before stimuli treatment, the inhibitor was added after 2.5 hours of priming and it was incubated for 30 minutes before inflammasome activation. Inhibitors were used as follows: 3 μM MCC950, 45 mM KCl, 30 μM ebselen (2-Phenyl-1,2-benzoselenazol-3-one), 5 μM cytochalasin D (see FIGS. 8, 11, 12 and 17).
All inflammasome stimulations were performed in three technical replicates for each condition. Lytic cell death was determined via LDH release (see FIGS. 8, 13-16 and 18), cytokines quantified in cell-free supernatants via ELISA (see FIGS. 4D, 7-9, 11-19) and cell lysates and supernatants analyzed via immunoblotting (see FIGS. 5A and 5B) as previously described in detail (Gross, Olaf, 2012 “Measuring the inflammasome”, Methods in molecular biology, Clifton, N.J., 844, pp. 199-222. Schneider, Katharina S.; Thomas, Christina J.; Groß, Olaf, 2013, “Inflammasome activation and inhibition in primary murine bone marrow-derived cells, and assays for IL-1α, IL-1β, and caspase-1”, Methods in molecular biology, Clifton, N.J., 1040, pp. 117-135).

Setting [1] is: 25 μM, positive control EN22 10 μM.
The mark [2] stands for this setting: 50 μM, positive control EN22 10 μM.
Where [3] appears, read: 75 μM, positive control EN22 10 μM.
The mark [4] stands for this setting: section 1.4, 18.75 μM, read-out: Average LDH release (% of max.).
Where [5] appears, read: section 1.4, 37.5 μM, read-out: Average LDH release (% of max.).
The mark [6] stands for this setting: section 1.4, 75 μM, read-out: Average LDH release (% of max.).
Setting [7] is: section 1.4, single replicates, 18.75 μM, read-out: LDH release (% of max.).
[8] abbreviates: section 1.4, single replicates, 37.5 μM, read-out: LDH release (% of max.).
Where [9] appears, read: section 1.4, single replicates, 75 μM, read-out: LDH release (% of max.).
[10] abbreviates: section 1.4, 18.75 μM, positive control EN22 18.75 μM.
Where [11] appears, read: section 1.4, 37.5 μM, positive control EN22 18.75 μM.
[12] abbreviates: section 1.4, 75 μM, positive control EN22 18.75 μM.
[13] abbreviates: 18.75 μM, positive control EN22 18.75 μM.
Where [14] appears, read: 37.5 μM, positive control EN22 18.75 μM.
[15] abbreviates: 75 μM, positive control EN22 18.75 μM.

T1 sequence (Q8R4B8 whole entry): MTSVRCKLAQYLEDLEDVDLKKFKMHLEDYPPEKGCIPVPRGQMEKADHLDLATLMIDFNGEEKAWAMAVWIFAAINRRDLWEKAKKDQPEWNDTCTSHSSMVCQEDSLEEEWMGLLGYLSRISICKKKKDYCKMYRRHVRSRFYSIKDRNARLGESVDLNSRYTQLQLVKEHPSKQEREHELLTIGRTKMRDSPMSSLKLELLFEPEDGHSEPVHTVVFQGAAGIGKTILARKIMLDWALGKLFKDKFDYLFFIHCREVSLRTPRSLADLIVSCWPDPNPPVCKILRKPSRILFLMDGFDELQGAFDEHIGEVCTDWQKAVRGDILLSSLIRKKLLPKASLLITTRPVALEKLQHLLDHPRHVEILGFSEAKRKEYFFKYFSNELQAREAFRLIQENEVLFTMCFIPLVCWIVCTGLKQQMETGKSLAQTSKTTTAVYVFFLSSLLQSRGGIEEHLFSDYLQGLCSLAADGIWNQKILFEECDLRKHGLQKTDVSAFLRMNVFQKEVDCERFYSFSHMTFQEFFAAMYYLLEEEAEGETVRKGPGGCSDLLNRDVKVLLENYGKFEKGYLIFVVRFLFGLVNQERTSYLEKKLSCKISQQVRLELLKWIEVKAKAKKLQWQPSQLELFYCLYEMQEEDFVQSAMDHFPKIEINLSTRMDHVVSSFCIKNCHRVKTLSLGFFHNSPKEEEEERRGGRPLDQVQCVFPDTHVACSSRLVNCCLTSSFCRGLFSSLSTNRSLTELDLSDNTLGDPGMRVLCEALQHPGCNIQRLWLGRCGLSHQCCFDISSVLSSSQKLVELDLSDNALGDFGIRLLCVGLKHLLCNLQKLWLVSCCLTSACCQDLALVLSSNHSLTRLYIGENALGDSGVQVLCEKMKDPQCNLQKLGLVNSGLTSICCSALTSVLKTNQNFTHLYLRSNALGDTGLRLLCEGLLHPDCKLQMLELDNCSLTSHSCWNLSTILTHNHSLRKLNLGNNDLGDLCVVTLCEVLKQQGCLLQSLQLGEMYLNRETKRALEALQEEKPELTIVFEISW

On to `S=C(Nc1ccccc1)Nc1ccc2ncccc2c1` [AH4, 1-phenyl-3-(quinolin-6-yl) thiourea], for which the “Average (% positive control)” value in the test with BMDCs (setting [1]) is recorded as 24.359 % positive control; in the test on BMDCs (setting [2]), 73.142 % positive control; in the test on BMDCs (setting [3]) it was 89.204 % positive control; on NLRP3 inflammasome (setting [1]), 21.507 % positive control; at NLRP3 inflammasome (setting [2]) it was 100.000 % positive control; at NLRP3 inflammasome (setting [3]) it was 99.960 % positive control. The cytotoxicity at 25 µM in the test on BMDCs (25 μM, read-out: Average LDH release (% of max.)) was determined as 18.7%; in the test with BMDCs (25 μM, individual replicate values, read-out: LDH release (% of max.)) it was 20%. Besides, the cytotoxicity at 50 µM was 56.2% in the test on BMDCs (50 μM, read-out: Average LDH release (% of max.)) and 57.6% with BMDCs (50 μM, individual replicate values, read-out: LDH release (% of max.)). The cytotoxicity at 75 µM with BMDCs (75 μM, individual replicate values, read-out: LDH release (% of max.)) worked out at 67.9%; in the test with BMDCs (75 μM, read-out: Average LDH release (% of max.)), 68.5%. Further, the “Average IL-1β” value worked out at 2.151 ng/mL at NLRP3 inflammasome (25 μM, AH series table); 10.000 ng/mL at NLRP3 inflammasome (50 μM, AH series table); 9.996 ng/mL at NLRP3 inflammasome (75 μM, AH series table). The “IL-1β” value on NLRP3 inflammasome (25 μM, AH series table) was 2.340 ng/mL and 2.250 ng/mL and 1.863 ng/mL; at NLRP3 inflammasome (50 μM, AH series table), 10.000 ng/mL; at NLRP3 inflammasome (75 μM, AH series table), 9.988 ng/ml and 10.000 ng/ml (2×). For the same compound, the “characteristics of inflammasome activation in cells isolated from NLRP3 knockout mice” value with NLRP3 is on record as “do not occur”.
On to `COCCNC(=O)c1cc(-c2ccn(C3CCCC3)n2)n2ccccc12` [EN54], for which, in the test on NLRP3, the “characteristics of inflammasome activation in cells isolated from NLRP3 knockout mice” value is given as “do not occur”.
On to `COc1ccc(NC(=O)Nc2ccc(-c3noc(CC4CCCN(Cc5cccc(F)c5C)C4)n3)cc2)cc1` (centres unmarked) [PM07, 1-[4-(5-((1-(3-fluoro-2-methylbenzyl)piperidin-3-yl)methyl)-1,2,4-oxadiazol-3-yl)phenyl]-3-[(4-methoxy)phenyl] urea], for which the cytotoxicity at 18.75 µM amounted to 51% with BMDCs (setting [4]) and 50.4% in the test on BMDCs (setting [7]). The figures for the cytotoxicity at 37.5 µM in the test with BMDCs (setting [5]) and with BMDCs (setting [8]) were 69.3% and 67.7%, respectively. The cytotoxicity at 75 µM in the test with BMDCs (setting [6]) was found to be 85.6%; in the test on BMDCs (setting [9]), 85.1%. Also, the “Average (% positive control)” value in the test with BMDCs (setting [10]) worked out at 71.489 % positive control; in the test with BMDCs (setting [11]) it was 97.102 % positive control; in the test on BMDCs (setting [12]) it was 120.051 % positive control; at NLRP3 inflammasome (setting [13]) it was 21.124 % positive control; at NLRP3 inflammasome (setting [14]), 25.211 % positive control; on NLRP3 inflammasome (setting [15]), 19.256 % positive control. Moreover, the “Average IL-1β” value on NLRP3 inflammasome (18.75 μM) is 1.335 ng/mL; on NLRP3 inflammasome (37.5 μM), 1.594 ng/mL; at NLRP3 inflammasome (75 μM) it was 1.217 ng/mL. Moreover, the “IL-1β” value at NLRP3 inflammasome (18.75 μM) was 1.117 ng/mL and 1.248 ng/mL and 1.641 ng/mL; at NLRP3 inflammasome (37.5 μM), 1.916 ng/mL and 1.571 ng/mL and 1.295 ng/mL; at NLRP3 inflammasome (75 μM), 1.202 ng/mL and 1.130 ng/mL and 1.320 ng/mL.
As to `Cc1c(F)cccc1CN1CCCC(Cc2nc(-c3ccc(NC(=O)Nc4ccccc4)cc3)no2)C1` (centres unmarked) [PM16, 1-(4-(5-((1-(3-fluoro-2-methylbenzyl)piperidin-3-yl)methyl)-1,2,4-oxadiazol-3-yl)phenyl)-3-phenylurea], the cytotoxicity at 18.75 µM with BMDCs (setting [4]) was 72.8%; in the test with BMDCs (setting [7]), 72%. For the same compound, the cytotoxicity at 37.5 µM was determined as 90% with BMDCs (setting [5]) and 89% in the test on BMDCs (setting [8]). Further, the cytotoxicity at 75 µM with BMDCs (setting [6]) came to 97.5%; in the test on BMDCs (setting [9]), 100%. Besides, the “Average (% positive control)” value came to 102.052 % positive control in the test with BMDCs (setting [10]); 126.179 % positive control with BMDCs (setting [11]); 136.598 % positive control in the test with BMDCs (setting [12]); 12.288 % positive control on NLRP3 inflammasome (setting [13]); 13.380 % positive control at NLRP3 inflammasome (setting [14]); 14.083 % positive control on NLRP3 inflammasome (setting [15]). The results for the “Average IL-1β” value at NLRP3 inflammasome (18.75 μM), on NLRP3 inflammasome (37.5 μM) and on NLRP3 inflammasome (75 μM) were 0.777 ng/mL, 0.846 ng/mL and 0.890 ng/mL, respectively. Moreover, the “IL-1β” value on NLRP3 inflammasome (18.75 μM) is 0.764 ng/mL and 0.830 ng/mL and 0.736 ng/mL; at NLRP3 inflammasome (37.5 μM), 0.895 ng/mL and 0.795 ng/mL and 0.848 ng/mL; on NLRP3 inflammasome (75 μM) it was 0.876 ng/mL and 0.848 ng/mL and 0.948 ng/mL.
Consider `O=C(Nc1cccc(Cl)c1)Nc1ccc([N+](=O)[O-])cc1Cl` [TCMDC-143175, 3-(2-chloro-4-nitrophen-yl)-1-(3-chlorophenyl)-urea], for which the cytotoxicity at 18.75 µM with BMDCs (setting [4]) was 35.5%; in the test on BMDCs (setting [7]), 35.3%. For the same compound, the cytotoxicity at 37.5 µM was found to be 74.7% in the test with BMDCs (setting [5]) and 72.8% in the test on BMDCs (setting [8]). Moreover, the cytotoxicity at 75 µM in the test with BMDCs (setting [6]) is 91.4%; in the test with BMDCs (setting [9]), 91.5%. In addition, the “Average (% positive control)” value in the test with BMDCs (setting [10]) was 49.754 % positive control; in the test on BMDCs (setting [11]) it was 104.647 % positive control; in the test on BMDCs (setting [12]), 128.113 % positive control; at NLRP3 inflammasome (setting [13]), 1.666 % positive control; at NLRP3 inflammasome (setting [14]), 4.609 % positive control; at NLRP3 inflammasome (setting [15]), 6.592 % positive control. The “Average IL-1β” value amounted to 0.105 ng/mL on NLRP3 inflammasome (18.75 μM), 0.291 ng/mL on NLRP3 inflammasome (37.5 μM) and 0.417 ng/mL on NLRP3 inflammasome (75 μM). The “IL-1β” value at NLRP3 inflammasome (18.75 μM) is 0.102 ng/mL and 0.104 ng/mL and 0.110 ng/mL; at NLRP3 inflammasome (37.5 μM) it was 0.309 ng/mL and 0.275 ng/mL and 0.290 ng/mL; at NLRP3 inflammasome (75 μM), 0.423 ng/mL and 0.381 ng/mL and 0.446 ng/mL.

Values taken from patent US20240277658A1, “NLRP3 ACTIVATORS FOR USE IN THE TREATMENT OF INFECTIOUS DISEASES OR CANCER BY ACTIVATING NLRP3 INFLAMMASOME” (ALBERT-LUDWIGS-UNIVERSITÄT FREIBURG, priority 2020, published 2024).
